In ChEMBL document CHEMBL1151073, “Substituted 1,3,5-triazines as cholesteryl ester transfer protein inhibitors” (Bioorg Med Chem Lett, 1996):

Legend:
[1] = molecular target: T1, Cholesteryl ester transfer protein (Homo sapiens) (UniProt P11597); experiment: Compound was tested for inhibitory activity against Cholesteryl ester transfer protein at 50 uM
T1 sequence (whole entry): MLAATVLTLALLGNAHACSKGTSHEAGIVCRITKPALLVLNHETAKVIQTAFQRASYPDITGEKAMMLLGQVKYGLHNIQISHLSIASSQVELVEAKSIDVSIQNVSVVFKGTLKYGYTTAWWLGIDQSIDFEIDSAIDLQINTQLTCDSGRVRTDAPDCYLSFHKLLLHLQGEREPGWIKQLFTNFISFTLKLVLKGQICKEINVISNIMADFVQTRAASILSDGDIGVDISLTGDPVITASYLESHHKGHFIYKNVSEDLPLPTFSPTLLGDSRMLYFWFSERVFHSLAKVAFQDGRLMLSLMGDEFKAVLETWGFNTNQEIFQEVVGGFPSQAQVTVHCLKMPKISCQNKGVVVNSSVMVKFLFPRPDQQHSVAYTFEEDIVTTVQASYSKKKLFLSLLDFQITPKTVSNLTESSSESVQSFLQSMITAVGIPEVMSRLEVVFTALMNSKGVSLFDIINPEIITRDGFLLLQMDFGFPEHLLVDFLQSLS

[2] = molecular target: T2, Cholesteryl ester transfer protein (Homo sapiens, UniProt P11597); experiment: Inhibition of Cholesteryl ester transfer protein
T2 sequence (P11597 whole entry): T1 sequence (whole entry)

| Compound | inhibition [1] | IC50 [2] |
| --- | --- | --- |
| Oc1nc(N2CCNCC2)nc(N2CCN(c3ccc(Cl)cc3)CC2)n1 | 11% | – |
| COc1ccc(CCNc2nc(N3CCNCC3)nc(N3CCN(c4ccc(Cl)cc4)CC3)n2)cc1O | – | 16 µM |
| Clc1ccc(N2CCN(c3nc(N4CCNCC4)nc(N4CCc5ccccc5C4)n3)CC2)cc1 | – | 5 µM |
| Clc1ccc(N2CCN(c3nc(NCCc4ccccc4)nc(N4CCNCC4)n3)CC2)cc1 | – | 45 µM |
| Clc1ccc(N2CCN(c3nc(Cl)nc(N4CCNCC4)n3)CC2)cc1 | 37% | – |
| Clc1ccc(N2CCN(c3nc(Cc4ccccc4)nc(N4CCNCC4)n3)CC2)cc1 | – | 9 µM |
| Clc1ccc(N2CCN(c3nc(NCc4ccccc4)nc(N4CCNCC4)n3)CC2)cc1 | 52% | – |
| Oc1ccc(CCNc2nc(N3CCNCC3)nc(N3CCN(c4ccc(Cl)cc4)CC3)n2)cc1O | – | 21 µM |
| Clc1ccc(Cc2nc(N3CCNCC3)nc(N3CCN(c4ccc(Cl)cc4)CC3)n2)cc1 | – | 9 µM |
| Clc1ccc(N2CCN(c3nc(OCCc4ccccc4)nc(N4CCNCC4)n3)CC2)cc1 | 66% | – |
| Clc1ccc(N2CCN(c3nc(-c4ccccc4)nc(N4CCNCC4)n3)CC2)cc1 | – | 11 µM |
| CN(CCc1ccccc1)c1nc(N2CCNCC2)nc(N2CCN(c3ccc(Cl)cc3)CC2)n1 | – | 6 µM |
| CCCCOc1nc(N2CCNCC2)nc(N2CCN(c3ccc(Cl)cc3)CC2)n1 | 57% | – |
| Clc1ccc(N2CCN(c3nc(Cc4ccc5ccccc5c4)nc(N4CCNCC4)n3)CC2)cc1 | – | 5 µM |
| Clc1ccc(N2CCN(c3nc(C#Cc4ccccc4)nc(N4CCNCC4)n3)CC2)cc1 | – | 12 µM |
| Clc1ccc(N2CCN(c3nc(N/N=C/c4ccccc4)nc(N4CCNCC4)n3)CC2)cc1 | – | 10 µM |
| Clc1ccc(N2CCN(c3ncnc(N4CCNCC4)n3)CC2)cc1 | 14% | – |
| C=Cc1nc(N2CCNCC2)nc(N2CCN(c3ccc(Cl)cc3)CC2)n1 | 48% | – |
| CCCCc1nc(N2CCNCC2)nc(N2CCN(c3ccc(Cl)cc3)CC2)n1 | – | 11 µM |
